Measurements reported in the NIST ThermoML archive (doi:10.1016/j.jct.2005.07.009).

Experiments:
[1] = excess molar enthalpy (molar enthalpy of mixing); xn = mol fraction of the nth substance listed; conditions: 298.15 K, 101 kPa, Liquid
[2] = xn = mol fraction of the nth substance listed; conditions: 298.15 K, 101 kPa, Liquid, Vibrating tube method

BrCCCBr [1,3-dibromopropane] + CCOC=O
Conditions	excess molar enthalpy [kcal/mol]	mass density [kg/m3]
[1], x2 = 0.0727	0.0421	–
[1], x2 = 0.1458	0.0721	–
[1], x2 = 0.2104	0.0959	–
[1], x2 = 0.2886	0.113	–
[1], x2 = 0.3588	0.123	–
[1], x2 = 0.4253	0.126	–
[1], x2 = 0.4828	0.125	–
[1], x2 = 0.5358	0.122	–
[1], x2 = 0.5812	0.116	–
[1], x2 = 0.6324	0.109	–
[1], x2 = 0.6925	0.0965	–
[1], x2 = 0.7529	0.0811	–
[1], x2 = 0.8177	0.062	–
[1], x2 = 0.882	0.0414	–
[1], x2 = 0.9449	0.021	–
[2], x2 = 0.0717	–	1908.92
[2], x2 = 0.1454	–	1844.11
[2], x2 = 0.2149	–	1781.28
[2], x2 = 0.2791	–	1721.26
[2], x2 = 0.3468	–	1656.48
[2], x2 = 0.4099	–	1594.33
[2], x2 = 0.4685	–	1534.98
[2], x2 = 0.5893	–	1407.8
[2], x2 = 0.6459	–	1345.63
[2], x2 = 0.6988	–	1285.95
[2], x2 = 0.7521	–	1224.47
[2], x2 = 0.8028	–	1164.26
[2], x2 = 0.8548	–	1101.12
[2], x2 = 0.9056	–	1037.67

BrCCCCBr [1,4-dibromobutane] + CCCC(=O)OCC
Conditions	excess molar enthalpy [kcal/mol]	mass density [kg/m3]
[1], x2 = 0.0504	0.00535	–
[1], x2 = 0.1096	0.00903	–
[1], x2 = 0.173	0.0111	–
[1], x2 = 0.2384	0.0112	–
[1], x2 = 0.2992	0.00939	–
[1], x2 = 0.3567	0.00607	–
[1], x2 = 0.4115	0.000311	–
[1], x2 = 0.4617	-0.00511	–
[1], x2 = 0.5078	-0.00975	–
[1], x2 = 0.5351	-0.0127	–
[1], x2 = 0.5479	-0.0133	–
[1], x2 = 0.5908	-0.0158	–
[1], x2 = 0.6504	-0.0171	–
[1], x2 = 0.7147	-0.0172	–
[1], x2 = 0.7818	-0.0157	–
[1], x2 = 0.8513	-0.0125	–
[1], x2 = 0.9352	-0.006	–
[2], x2 = 0.1092	–	1704.75
[2], x2 = 0.1651	–	1647.4
[2], x2 = 0.2725	–	1539.36
[2], x2 = 0.387	–	1427.18
[2], x2 = 0.4481	–	1368.56
[2], x2 = 0.502	–	1317.46
[2], x2 = 0.6423	–	1187.58
[2], x2 = 0.6846	–	1149.12
[2], x2 = 0.7489	–	1091.51
[2], x2 = 0.8041	–	1042.59
[2], x2 = 0.9323	–	931.23

BrCCCCBr [1,4-dibromobutane] + CCCCC(=O)OCC
Conditions	excess molar enthalpy [kcal/mol]	mass density [kg/m3]
[1], x2 = 0.0901	0.0101	–
[1], x2 = 0.1832	0.0134	–
[1], x2 = 0.2717	0.0117	–
[1], x2 = 0.3528	0.00638	–
[1], x2 = 0.4123	-0.00198	–
[1], x2 = 0.4598	-0.00851	–
[1], x2 = 0.4897	-0.0118	–
[1], x2 = 0.5049	-0.0126	–
[1], x2 = 0.5621	-0.0171	–
[1], x2 = 0.6266	-0.0197	–
[1], x2 = 0.6967	-0.0208	–
[1], x2 = 0.7722	-0.0197	–
[1], x2 = 0.852	-0.016	–
[1], x2 = 0.9288	-0.00963	–
[2], x2 = 0.0539	–	1762.5
[2], x2 = 0.109	–	1704.93
[2], x2 = 0.2129	–	1598.64
[2], x2 = 0.2678	–	1543.48
[2], x2 = 0.3262	–	1485.57
[2], x2 = 0.3815	–	1431.53
[2], x2 = 0.469	–	1347.31
[2], x2 = 0.5155	–	1303.25
[2], x2 = 0.554	–	1267.17
[2], x2 = 0.6207	–	1205.19
[2], x2 = 0.7373	–	1099.12
[2], x2 = 0.8643	–	986.49
[2], x2 = 0.9324	–	927.28

BrCCCCBr [1,4-dibromobutane] + CCOC(=O)CC
Conditions	excess molar enthalpy [kcal/mol]	mass density [kg/m3]
[1], x2 = 0.0536	0.00581	–
[1], x2 = 0.1124	0.00918	–
[1], x2 = 0.1759	0.0118	–
[1], x2 = 0.2389	0.0119	–
[1], x2 = 0.2996	0.0102	–
[1], x2 = 0.357	0.00696	–
[1], x2 = 0.4101	0.00217	–
[1], x2 = 0.4558	-0.00277	–
[1], x2 = 0.4841	-0.00619	–
[1], x2 = 0.4948	-0.00739	–
[1], x2 = 0.5354	-0.012	–
[1], x2 = 0.5917	-0.0157	–
[1], x2 = 0.653	-0.0173	–
[1], x2 = 0.72	-0.0174	–
[1], x2 = 0.7905	-0.015	–
[1], x2 = 0.8639	-0.011	–
[1], x2 = 0.9353	-0.00614	–
[2], x2 = 0.1225	–	1707.2
[2], x2 = 0.1797	–	1654.41
[2], x2 = 0.2372	–	1601.35
[2], x2 = 0.299	–	1544.11
[2], x2 = 0.3597	–	1488.19
[2], x2 = 0.479	–	1376.63
[2], x2 = 0.5912	–	1271.5
[2], x2 = 0.6516	–	1214.75
[2], x2 = 0.7649	–	1107.74
[2], x2 = 0.8159	–	1059.5
[2], x2 = 0.8793	–	999.28
[2], x2 = 0.9306	–	950.5

BrCCCCBr [1,4-dibromobutane] + CCOC(C)=O
Conditions	excess molar enthalpy [kcal/mol]	mass density [kg/m3]
[1], x2 = 0.0724	0.0259	–
[1], x2 = 0.1477	0.0417	–
[1], x2 = 0.2228	0.0516	–
[1], x2 = 0.2954	0.0559	–
[1], x2 = 0.3654	0.0562	–
[1], x2 = 0.4273	0.0538	–
[1], x2 = 0.4836	0.0497	–
[1], x2 = 0.5346	0.0447	–
[1], x2 = 0.5727	0.0394	–
[1], x2 = 0.6226	0.0329	–
[1], x2 = 0.6702	0.0265	–
[1], x2 = 0.7257	0.0205	–
[1], x2 = 0.7826	0.0143	–
[1], x2 = 0.8416	0.00927	–
[1], x2 = 0.8982	0.00521	–
[1], x2 = 0.9516	0.00241	–
[2], x2 = 0.0713	–	1763.64
[2], x2 = 0.1362	–	1711.83
[2], x2 = 0.2057	–	1654.85
[2], x2 = 0.2657	–	1604.71
[2], x2 = 0.3922	–	1495.44
[2], x2 = 0.4539	–	1440.32
[2], x2 = 0.5154	–	1384.15
[2], x2 = 0.5749	–	1328.61
[2], x2 = 0.683	–	1224.74
[2], x2 = 0.7406	–	1167.52
[2], x2 = 0.7867	–	1121.03
[2], x2 = 0.8486	–	1057.13
[2], x2 = 0.9	–	1002.89
[2], x2 = 0.9494	–	949.81

BrCCCCBr [1,4-dibromobutane] + CCOC=O
Conditions	excess molar enthalpy [kcal/mol]	mass density [kg/m3]
[1], x2 = 0.0799	0.0549	–
[1], x2 = 0.1652	0.0897	–
[1], x2 = 0.2469	0.118	–
[1], x2 = 0.3246	0.135	–
[1], x2 = 0.397	0.145	–
[1], x2 = 0.4607	0.149	–
[1], x2 = 0.5109	0.147	–
[1], x2 = 0.5179	0.148	–
[1], x2 = 0.5525	0.145	–
[1], x2 = 0.5649	0.143	–
[1], x2 = 0.5973	0.14	–
[1], x2 = 0.6082	0.137	–
[1], x2 = 0.6459	0.131	–
[1], x2 = 0.6929	0.121	–
[1], x2 = 0.7514	0.103	–
[1], x2 = 0.8051	0.0847	–
[1], x2 = 0.8598	0.0615	–
[1], x2 = 0.9121	0.0378	–
[1], x2 = 0.9614	0.0142	–
[2], x2 = 0.0952	–	1765.32
[2], x2 = 0.1744	–	1716.81
[2], x2 = 0.2604	–	1660.33
[2], x2 = 0.3295	–	1611.72
[2], x2 = 0.4012	–	1557.95
[2], x2 = 0.4668	–	1505.48
[2], x2 = 0.5355	–	1446.96
[2], x2 = 0.5888	–	1398.87
[2], x2 = 0.6436	–	1346.56
[2], x2 = 0.6981	–	1291.4
[2], x2 = 0.7934	–	1186.14
[2], x2 = 0.9238	–	1023.59
[2], x2 = 0.9623	–	970.42

BrCCCCCBr [1,5-dibromopentane] + CCCC(=O)OCC
Conditions	excess molar enthalpy [kcal/mol]	mass density [kg/m3]
[1], x2 = 0.0632	0.00545	–
[1], x2 = 0.1296	0.00906	–
[1], x2 = 0.1974	0.0117	–
[1], x2 = 0.2617	0.012	–
[1], x2 = 0.3247	0.0105	–
[1], x2 = 0.3843	0.00777	–
[1], x2 = 0.4396	0.00466	–
[1], x2 = 0.4909	0.000693	–
[1], x2 = 0.5367	-0.00239	–
[1], x2 = 0.5745	-0.00511	–
[1], x2 = 0.6072	-0.00657	–
[1], x2 = 0.6211	-0.00755	–
[1], x2 = 0.6798	-0.00937	–
[1], x2 = 0.7429	-0.0104	–
[1], x2 = 0.8114	-0.00944	–
[1], x2 = 0.878	-0.00696	–
[1], x2 = 0.9431	-0.00356	–
[2], x2 = 0.059	–	1646.96
[2], x2 = 0.1242	–	1594.68
[2], x2 = 0.1821	–	1548
[2], x2 = 0.238	–	1502.9
[2], x2 = 0.3008	–	1451.99
[2], x2 = 0.4202	–	1354.48
[2], x2 = 0.5373	–	1258.57
[2], x2 = 0.5953	–	1210.74
[2], x2 = 0.6536	–	1162.53
[2], x2 = 0.7109	–	1115.08
[2], x2 = 0.7685	–	1067.15
[2], x2 = 0.8314	–	1014.81
[2], x2 = 0.8895	–	966.17

BrCCCCCBr [1,5-dibromopentane] + CCCCC(=O)OCC
Conditions	excess molar enthalpy [kcal/mol]	mass density [kg/m3]
[1], x2 = 0.0537	0.00703	–
[1], x2 = 0.1124	0.012	–
[1], x2 = 0.1746	0.0158	–
[1], x2 = 0.2384	0.0178	–
[1], x2 = 0.3005	0.0179	–
[1], x2 = 0.3573	0.0158	–
[1], x2 = 0.4121	0.012	–
[1], x2 = 0.4619	0.00674	–
[1], x2 = 0.5075	0.00098	–
[1], x2 = 0.5483	-0.00344	–
[1], x2 = 0.5745	-0.00566	–
[1], x2 = 0.6374	-0.00863	–
[1], x2 = 0.7074	-0.01	–
[1], x2 = 0.7809	-0.00994	–
[1], x2 = 0.8572	-0.00848	–
[1], x2 = 0.9337	-0.00483	–
[2], x2 = 0.0539	–	1645.46
[2], x2 = 0.1105	–	1595.11
[2], x2 = 0.1636	–	1548.32
[2], x2 = 0.2206	–	1498.77
[2], x2 = 0.3289	–	1405.86
[2], x2 = 0.3899	–	1354.43
[2], x2 = 0.4455	–	1307.95
[2], x2 = 0.5024	–	1260.98
[2], x2 = 0.5632	–	1211.27
[2], x2 = 0.5935	–	1186.69
[2], x2 = 0.6792	–	1117.97
[2], x2 = 0.7412	–	1068.93
[2], x2 = 0.803	–	1020.6
[2], x2 = 0.8672	–	970.91
[2], x2 = 0.9294	–	923.31
